Source: patent US12570956B2, “Efficient derivation of stable pluripotent bovine embryonic stem cells” (The Regents of the University of California, priority 2018, dated 2026)
“Also recorded” adds a separate entry of the source.

Key:
bovine blastocyst = settings: added during in vitro pre-implantation development; cited from earlier work
[1] = tested on: bovine embryonic stem cells; experiment: Immunostaining of pluripotency markers in bESCs grown with or without IWR1; type: cell-based; settings: withdrawal of IWR1 from the culture media; four passages
Method: FIG. 3: Inhibition of the canonical Wnt-signaling pathway is a requirement for self-renewal of pluripotent CTFR-bESCs. Immunostaining of the core pluripotency markers POU5F1 and SOX2 in bovine embryonic stem cells grown in medium supplemented with or devoid of IWR1 (+IWR1 and −IWR1, respectively). Cells were grown for four passages in the two conditions before immunofluorescence analysis. Scale bar 100 μm.
(§1) Individual whole blastocysts or isolated ICMs were placed in separate wells of a 12-well dish seeded with a monolayer of gamma-irradiated mouse embryonic fibroblasts (MEF) and cultured in CTFR medium: a custom mTeSR-like basal medium (completely devoid of growth factors FGF2 and TGFβ) containing low fatty acid BSA (MP Biomedicals NZ), similar to basal medium in the published recipe(45) supplemented with 20 ng/ml human FGF2 and 2.5 μM IWR1 (CTFR), and incubated at 37° C. and 5% CO2.
Once established, CTFR-bESC lines were grown at 37° C. and 5% CO2 on wells containing MEF and passaged every 4-5 days at a 1:10 split ratio. To increase cell survival, optionally, ROCK inhibitor (Y-27632, 10 μM) was added to the wells 1 h prior to passage and was also added to the newly prepared wells containing MEF and fresh culture media medium during 24 hrs. Media change was done daily between passages. ROCK inhibitor is dispensable for routine maintenance and passaging of CTFR-bESCs. […]

bovine blastocysts = experiment: Derivation of CTFR-bESC lines from plated blastocysts/ICMs; type: cell-based; settings: IWR1 not present in the culture medium
Method: CTFR-bESCs derivation efficiency was measured as the percentage of embryos successfully establishing a CTFR-bESC line at passage 3 over the total number of embryos seeded. To optimize the CTFR-bESCs derivation efficiency, Applicants evaluated three different plating methods: whole blastocyst, mechanical isolation of the ICM by microdissection, and isolation of the ICM by immunosurgery. […] The initial outgrowths from the three methods were slightly different. The immunosurgery-derived outgrowths were smaller and more homogeneous in cell morphology than those from the other two methods.
as §1, with “recipe([…]),” for “recipe(45) supplemented with 20 ng/ml human FGF2 and 2.5 μM IWR1 (CTFR),”
Thereafter, the media was changed daily. Outgrowths (after 6-7 days in culture) were dissociated and passaged using TrypLE (Gibco, 12563011) and re-seeded in the presence of Rho Kinase (ROCK) inhibitor (Y-27632, 10 μM) onto newly prepared wells containing MEF and fresh medium (FIG. 1).

CTFR-bESCs [2] = experiment: Routine maintenance and passaging of CTFR-bESCs; type: cell-based, bovine; settings: Y-27632, 10 μM
Method: Once established, CTFR-bESC lines were grown at 37° C. and 5% CO2 on wells containing MEF and passaged every 4-5 days at a 1:10 split ratio. To increase cell survival, optionally, ROCK inhibitor (Y-27632, 10 μM) was added to the wells 1 h prior to passage and was also added to the newly prepared wells containing MEF and fresh culture media medium during 24 hrs. Media change was done daily between passages. ROCK inhibitor is dispensable for routine maintenance and passaging of CTFR-bESCs.

CTFR-bESCs [3] = experiment: Feeder-free culture of CTFR-bESCs on Matrigel or Vitronectin; type: cell-based, bovine; settings: medium supplemented with Activin-A (10 ng/mL), four passages
Method: FIG. 9. CTFR-bESCs can be cultured in feeder-free conditions. Brightfield images and immunostaining for pluripotency markers OCT4 and SOX2 of CTFR-bESCs cultured for four passages on mouse embryonic fibroblast (MEF) feeder (Control) or different extracellular matrices (Matrigel or Vitronectin) conditions, with or without the supplementation of Activin-A (10 ng/mL). Control: inactivated MEFs.
Culturing CTFR-bESCs in absence of feeder cells lead to cellular differentiation after a few passages.

bovine embryos = settings: in vitro treatment from day 5 to day 7 after fertilization; cited from earlier work

COc1cccc(-c2cc(NCc3ccc4c(c3)OCO4)nc(N)n2)c1 [AMBMP, 2-amino-4-(3,4-(methylenedioxy)benzylamino)-6-(3-methoxyphenyl)pyrimidine]
bovine blastocyst development (bovine blastocyst): detrimental effects
total number of cells in the ICM (bovine blastocyst): reduces

O=C(Nc1cccc2cccnc12)c1ccc(N2C(=O)[C@@H]3[C@H](C2=O)[C@@H]2C=C[C@H]3C2)cc1 [IWR1]
pluripotency marker expression (POU5F1, SOX2) [1]: loss of pluripotency marker expression
establishment of bESC line (bovine blastocysts): no bESC lines could be established

C[C@@H](N)[C@H]1CC[C@H](C(=O)Nc2ccncc2)CC1 [Y-27632]
need for ROCK inhibitor in maintenance and passaging (CTFR-bESCs [2]): dispensable

Activin-A: culture supplement used with an organic matrix to replace feeder cells
propagation and pluripotency marker expression (OCT4, SOX2) without feeder cells (CTFR-bESCs [3]): allowed the propagation of the cells for multiple passages while maintaining expression of pluripotency markers; also recorded: maintained expression of pluripotency markers and a morphology consistent with CTFR-bESC

B1: DKK1: protein inhibitor of the canonical WNT-signaling pathway, naturally secreted by the female reproductive tract (protein, UniProt O94907 32-266, looked up)
Dickkopf-related protein 1: TLNSVLNSNAIKNLPPPLGGAAGHPGSAVSAAPGILYPGGNKYQTIDNYQPYPCAEDEECGTDEYCASPTRGGDAGVQICLACRKRRKRCMRHAMCCPGNYCKNGICVSSDQNHFRGEIEETITESFGNDHSTLDGYSRRTTLSSKMYHTKGQEGSVCLRSSDCASGLCCARHFWSKICKPVLKEGQVCTKHRRKGSHGLEIFQRCYCGEGLSCRIQKDHHQASNSSRLHTCQRH
embryo survival after transfer to recipients (bovine embryos): significantly improve
